The values below come from patent US5219867A, “Platelet aggregation inhibitory agents” (priority 1992, dated 1993).

One assay concerns human platelets. The experiment in a line: Inhibition of collagen-induced aggregation, washed aequorin-loaded platelet suspension. The note with it: for IC50: Homo sapiens, Platelet, collagen-induced aggregation (n = 4), HEPES-buffered saline, 1.0 mM CaCl2, read-out: Ia50 ± S.E. Collagen-induced. It counts as cell-based. As to the method:
(§1) Procedure for Cytosolic Ionized Calcium Determination. The basic procedure of Yamaguchi, et al. (Thromb. Res., Vol. 44, Pages 165-174, 1986) was followed. Blood was collected from six blood donors, aged 24-38 years, who had fasted overnight and affirmed abstinence from alcohol, caffeine and medications of any kind for a period of at least one week prior to donation. […] Platelets were collected (800 g, 15 min), resuspended in and washed (800 g, 15 min) with HEPES-buffered saline (140 mM NaCl, 2.7 mM KCl, 0.1% bovine albumin, 0.5% glucose, 3.8 mM HEPES, pH 7.6) with EGTA (5 mM) and PGE1 (1 μM). The platelet pellet was resuspended in 90 μl of the same buffer and added to 20μl of 3 mg/ml aequorin solution in a 1.5 ml Eppendorf centrifuge tube. Six 1 μl aliquots of DMSO were added at 90 second intervals with brief, gentle mixing on a Vortex mixer and the platelet suspension was incubated 2 minutes after the last addition. One ml of HEPES-buffered saline was added, gently mixed, and again incubated for 2 minutes. The platelets were pelleted (1000 g, 30 sec), resuspended in HEPES-buffered saline to which was added either 1 mM Mg Cl2, (calcium-free buffer) or 1 mM Mg Cl2 and 1 mM Ca Cl2 (calcium buffer), depending on the experiment. The platelet count was adjusted to 3-4×10^5 platelets/μl.
(§2) The Platelet Ionized Calcium Aggregometer (Chrono-Log Corp., Ltd., Havertown, Pa.) was used to obtain simultaneous aggregation and luminescence data under the following experimental conditions: (1) platelet suspension, 1 ml, was equilibrated at 37° C. with stirring at 1100 rpm; (2) 100 μl (1.2 μg) of fibrinogen was added; (3) the vehicle (95% ethanol) or the test compound in vehicle was added; (4) when needed, 10 μl of the desired concentration of EGTA was added 30 seconds prior to addition of the agonist; then (5) the agonist (Collagen, 5 μg or 20 μg) was added and the time noted. At one minute after addition of the agonist in Channel 1, a platelet sample containing fibrinogen in Channel 2 was lysed with 10 μl of a 1:1 solution of Triton X-100 (final concentration 0.005%) 10 mM CaCl2 (final concentration 0.5 mM). Treated and control […] data were corrected for time dependent decay of fluorescence using data from the untreated lysed controls.
(§3) Normally 4 compound-treated samples (at 4 different concentrations) interspersed with 3 control samples were evaluated at 4.5 minute intervals starting 18-23 minutes after the DMSO treatment. The Ia50 values were calculated as described earlier. The compound concentrations effecting 50% inhibition (Ica50) of collagen-induced cytosolic ionized calcium values was determined by linear regression analysis.
Compounds I-rac, (+)-I,(IC) and (-)-I(IA) were evaluated. The Ia50 (collagen-induced aggregation) and Ica50 (compound concentration required to inhibit by 50% the collagen-induced rise in cytosolic ionized calcium)values determined with platelet suspensions in HEPES-buffered saline containing 1.0 mM CaCl2 were as follows: […]

Assay [1] deals with cytosolic ionized calcium in human platelets. The assay is described as follows: Inhibition of collagen-induced rise in cytosolic ionized calcium (aequorin luminescence). It counts as cell-based. The note with it: for IC50: 1mM [Ca2+]o (n = 4), read-out: Ica50 ± S.E. Collagen-induced (50% inhibition of collagen-induced rise in cytosolic ionized calcium). As to the method:
as §1, §2, §3
Compounds I-rac, (+)-I,(IC) and (-)-I(IA) were evaluated. The Ia50 (collagen-induced aggregation) and Ica50 (compound concentration required to inhibit by 50% the collagen-induced rise in cytosolic ionized calcium)values determined with platelet suspensions in HEPES-buffered saline containing 1.0 mM CaCl2 were as follows:
Collagen-stimulation of platelets suspended in media containing 1.0 mM of Ca^2+ (FIG. 13) or 1.0 mM (FIG. 14A) or 2.0 mM (FIG. 14B) EGTA (a calcium chelator) gave […] cytosolic ionized calcium peak (aequorin-indicated luminescence). Contrarily, two phases of Ca^2+ mobilization were observed when aequorin-loaded human platelets suspended in a medium containing 0.1 mM EGTA were stimulated with collagen (FIG. 14, designation D). The first corresponded to platelet shape change and the second peak to aggregation. […] The platelet suspension (1.0 ml) was pre-incubated with 1.0 μl of (A) 95% ethanol, (B) a solution of Compound I (14.59 μM) in 95% ethanol, or (C) a solution of Compound I (23.87 μM) in 95% ethanol. Collagen (20 μg) was added at time indicated by the arrows. Luminescence was again recorded at a gain of 0.5. […] Accordingly, the stereo-selective inhibitory properties of the compounds of the present invention appear to be mediated through the inhibition of [Ca^2+ ].

Another assay has as its system male ICR mice. The experiment in a line: Mouse antithrombotic assay (collagen-epinephrine thromboembolic death). It is filed as in vivo. Conditions: for ED50: ip, 30 min before i.v. collagen-epinephrine challenge, read-out: ED50 (protection from thromboembolic death). On the procedure: The method employed is similar to Myers, et al's (Proc. Soc. Exp. Biol. Med., Vol. 183, Pages 86-91, 1986) modification of the procedure of DiMinno and Silver (J. Pharmacl. Exp. Therap., Vol. 225, Pages 57-60, 1983). Male ICR mice 25 g-35 g were used in this study. Collagenreagent Horm, containing 1 mg/ml of native collagen fibrils from equine tendons suspended in isotonic glucose solution of pH 2.7 was obtained from Horm -Chemie Momchem GMBH, Munchen, Germany; Epinephrine Injection, USP 1 mg/ml was from Abbott Laboratories, North Chicago, Ill.
Rac.I.2HBr was dissolved in physiological saline and (+)-I (I-C) was dissolved in saline at pH 6.5 at a concentration which yielded the desired dosage when 10 ml/kg of the compound solution was injected intraperitoneally (i.p.) to the mouse. Control mice received 10 ml/kg of the solvent/vehicle intraperitoneally.
Thirty (30) minutes after administration of test compound, the mouse was challenged with intravenous collagen-epinephrine suspension. The procedure is as follows: Fifteen (15) minutes after i.p. administration of test compound, the mouse was given 50-60 mg/kg of pentobarbital sodium (Nembutal). About 10-12 minutes later (when the mouse was anesthetized) the jugular vein was surgically exposed in preparation for the intravenous collagen-epinephrine injection.
Thirty (30) minutes after i.p. administration of the test compound (and about 15 minutes after i.p. Nembutal) the mouse's platelets were challenged with 0.00333 ml/gm (0.10 ml/30 gm mouse) of the intravenous collagen-epinephrine suspension into the jugular vein. [The collagen-epinephrine suspension contained 0.15 mg collagen fibrils and 0.018 mg of epinephrine per ml of the suspension]. The rate of injection for the collagen-epinephrine suspension was consistent from one mouse to the next.
Graded doses of the compound were administered to mice prior to the aggregation challenge. The ED50 was determined graphically from a Probit-log plot of percent of mice protected (Probit) by each dose (log scale) of the compound. […]

Where “and” joins values, the source holds several entries; their conditions need not be identical. Equal entries are not always repeated. Structures can show the parent of a compound that is named as a salt. Where two headings read alike, the source gives them in different places.

With `CCN(CC)C(=O)C1CCCN(Cc2ccc(CN3CCCC(C(=O)N(CC)CC)C3)cc2)C1` (racemic) [Compound I, α-α'-Bis[3-(N,N-diethyl-carbamoyl)piperidino]-p-xylene dihydrobromide], the IC50 in the assay with human platelets was 20.2 µM; in assay [1] (Homo sapiens, Platelet, collagen-induced), 21.2 µM. The “Effect on platelet shape change peak and aggregation peak of Ca2+ mobilization” value in assay [1] (0.1 mM EGTA, collagen 20 μg, Compound I 14.59 μM or 23.87 μM (FIG. 15)) is “inhibited both the platelet shape change peak and the aggregation peak”. For the same compound, in the assay on male ICR mice, the ED50 was 104 mg/kg and 164 µmol/kg.

Turning to `CCN(CC)C(=O)C1CCCN(Cc2ccc(CN3CCCC(C(=O)N(CC)CC)C3)cc2)C1` (single isomer, unassigned) [IC, α-α'-Bis(3-N,N-diethylcarbamoyl)piperidino]-p-xylene dihydrobromide], the IC50 is 10.7 ± 2.7 µM in the assay with human platelets and 3.6 ± 1.2 µM in assay [1] (collagen-induced, listed as IC (+)-I, dihydrobromide). Further, the “Potency in inhibiting aggregation relative to (-)-I” value with human platelets (collagen as agonist, in vitro) worked out at 18 times. Further, the “Potency in inhibiting the rise of cytosolic ionized calcium compared to racemic I, I-A and IB” value in assay [1] (collagen-induced, Ca2+-containing medium) was “much more potent”. The “Potency in protecting mice from thromboembolic death relative to racemic I.2HBr” value in the assay on male ICR mice (i.p.) is listed as “approximately three times more potent”. The ED50 in the assay with male ICR mice was 33.5 mg/kg and 71.2 µmol/kg.

One may read the ED50 as the dose at which the effect has come halfway, by size or by number of responders.
